Patent publication US8669072B2, “Oxadiazoline ligands for modulating the expression of exogenous genes via an ecdysone receptor complex” (Intrexon Corporation, priority 2003, dated 2014)

Assays:
[1] = target: T1, GAL4 DBD (1-147)-CfEcR(DEF)/VP16AD-βRXREF-LmUSPEF (Choristoneura fumiferana, UniProt O77240); assay: cell-based; conditions: for fold induction at 33.3 µM: 48 h, read-out: Fold Induction Average, 27-63 assay; for Rel Max FI, 27-63 assay: maximum fold induction relative to that of GS-E ligand
T1 construct: The wild-type D, E, and F domains from spruce budworm Choristoneura fumiferana EcR (“CfEcR-DEF”)
Description: Stably transfected cells were selected by Zeocin resistance. Individually isolated CHO cell clones were transiently transfected with a GAL4 RE-luciferase reporter (pFR Luc). 27-63 clone was selected using Hygromycin.
(§1) Cells were trypsinized and diluted to a concentration of 2.5×10^4 cells mL. 100 μL of cell suspension was placed in each well of a 96 well plate and incubated at 37° C. under 5% CO2 for 24 h. Ligand stock solutions were prepared in DMSO and diluted 300 fold for all treatments.
(§2) Luciferase reporter gene expression was measured 48 h after cell treatment using Bright-Glo™ Luciferase Assay System from Promega (E2650). Luminescence was detected at room temperature using a Dynex MLX microtiter plate luminometer.
(§3) Each assay was conducted in two separate wells, and the two values were averaged. Fold inductions were calculated by dividing relative light units (“RLU”) in ligand treated cells with RLU in DMSO treated cells. EC50s were calculated from dose response data using a three-parameter logistic model.

Bombyx mori EcR (VBE) = target: T2, Bombyx mori EcR (VBE) (Bombyx mori, UniProt P49881); assay: Z3 assay: β-galactosidase reporter gene induction in HEK-293 clone Z3 (CVBE / 6XEcRE LacZ); format: cell-based; conditions: 33 μM ligand, 48 h, RLU relative to DMSO; for fold induction at 33 µM: HEK293, read-out: Fold Induction Average, Z3 assay
T2 construct: expressed in transfected cells; host or cells: Human HEK-293 cells, retrovirally infected, clone Z3
T2 sequence (P49881 86-606 limits assumed): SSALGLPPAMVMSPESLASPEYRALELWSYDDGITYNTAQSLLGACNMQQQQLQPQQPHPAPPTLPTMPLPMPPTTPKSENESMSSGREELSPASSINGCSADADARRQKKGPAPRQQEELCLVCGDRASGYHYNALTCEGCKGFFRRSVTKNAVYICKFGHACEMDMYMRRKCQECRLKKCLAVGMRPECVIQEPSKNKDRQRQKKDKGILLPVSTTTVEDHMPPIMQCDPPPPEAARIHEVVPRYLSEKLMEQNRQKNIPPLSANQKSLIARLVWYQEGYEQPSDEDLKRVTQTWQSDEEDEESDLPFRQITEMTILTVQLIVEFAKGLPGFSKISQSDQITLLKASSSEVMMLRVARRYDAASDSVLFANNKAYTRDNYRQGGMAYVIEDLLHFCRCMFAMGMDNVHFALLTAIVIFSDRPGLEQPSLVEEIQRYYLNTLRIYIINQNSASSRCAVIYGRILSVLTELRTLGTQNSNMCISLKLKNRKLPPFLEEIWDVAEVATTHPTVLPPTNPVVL
T2 sequence (P19793 1-462 partner): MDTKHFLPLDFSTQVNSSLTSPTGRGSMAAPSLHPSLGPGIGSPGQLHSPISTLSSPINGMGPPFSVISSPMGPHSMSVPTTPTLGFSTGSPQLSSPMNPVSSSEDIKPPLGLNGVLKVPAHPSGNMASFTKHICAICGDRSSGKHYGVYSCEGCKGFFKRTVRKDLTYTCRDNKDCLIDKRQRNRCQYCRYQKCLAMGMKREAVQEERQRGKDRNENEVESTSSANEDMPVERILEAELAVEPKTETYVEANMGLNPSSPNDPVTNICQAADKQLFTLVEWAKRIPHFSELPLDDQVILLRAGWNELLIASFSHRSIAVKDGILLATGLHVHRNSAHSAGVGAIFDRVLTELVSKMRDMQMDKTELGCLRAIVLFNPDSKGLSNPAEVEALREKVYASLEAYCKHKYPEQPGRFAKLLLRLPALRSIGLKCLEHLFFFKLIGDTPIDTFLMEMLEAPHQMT
Description: A synthetic ATG start codon was placed under the control of cytomegalovirus (CVBE) immediate early promoter and flanked by long terminal repeats (LTR). The reporter construct contained six copies of the ecdysone response element (EcRE) binding site placed upstream of LacZ and flanked on both sides with LTR sequences (6×EcRE).
Dilution cloning was used to isolate individual clones. Clones were selected using 450 ug/mL G418 and 100 ng/mL puromycin. Individual clones were evaluated based on their response in the presence and absence of test ligands.
Z3 cells were seeded into 96-well tissue culture plates at a concentration of 2.5×10^3 cells per well and incubated at 37° C. in 5% CO2 for twenty-four hours. Stock solutions of ligands were prepared in DMSO. […] The final concentration of DMSO was maintained at 0.03% in both controls and treatments.
Reporter gene expression was evaluated 48 hours after treatment of cells, β-galactosidase activity was measured using Gal Screen™ bioluminescent reporter gene assay system from Tropix (GSY1000). Fold induction activities were calculated by dividing relative light units (“RLU”) in ligand treated cells with RLU in DMSO treated cells. Luminescence was detected at room temperature using a Dynex MLX microtiter plate luminometer.
as §3

[2] = target: T3, GAL4 DBD-CfEcR(DEF)/VP16AD-MmRXRE (Choristoneura fumiferana, UniProt O77240); assay: 13B3 assay: luciferase reporter gene induction in stable CHO clone 13B3; format: cell-based; conditions: 33/33.3 μM ligand, 48 h, RLU relative to DMSO
T3 construct: The wild-type D, E, and F domains from spruce budworm Choristoneura fumiferana EcR (“CfEcR-DEF”)
Description: CHO cells were transiently transfected with transcription cassettes for GAL4 DBD-CfEcR(DEF) and for VP16AD-MmRXRF controlled by SV40e promoters. Stably transfected cells were selected using Hygromycin. Individually isolated CHO cell clones were transiently transfected with a GAL4 RE-luciferase reporter (pFR-Luc, Stratagene, La Jolla, Calif.). The 13B3 clone was selected using Zeocin.
as §1, §2, §3

In the case of `CCc1ccc(C(=O)NN2C(c3cc(C)cc(C)c3)=NOC23CCOCC3)cc1` [RG-120005], the EC50 [1] is reported as > 33 µM, the fold induction at 33.3 µM [1] is reported as 0.8 and the “Rel Max FI, 27-63 assay” value [1] is reported as 0.
`CC1(C)ON=C(c2cccc(C(F)(F)F)c2)N1NC(=O)COCc1ccccc1` [RG-120006] was tested, and the “Fold Induction Average, Z3 assay” value (Bombyx mori EcR (VBE)) was 0.5 and the “Fold Induction Average, 13B3 assay” value [2] was 1.1.
With `Cc1cc(C)cc(C2=NOC3(CCOCC3)N2NC(=O)COCc2ccccc2)c1` [RG-120009] the “Fold Induction Average, Z3 assay” value (Bombyx mori EcR (VBE)) was 0.8 and the “Fold Induction Average, 13B3 assay” value [2] was 1.3.
In the case of `COc1ccccc1C1=NOC(C)(C)N1NC(=O)c1ccco1` [RG-120012], the “Fold Induction Average, Z3 assay” value (Bombyx mori EcR (VBE)) is reported as 0.7 and the “Fold Induction Average, 13B3 assay” value [2] is reported as 0.7.
For `CCOC(=O)CCC(=O)NN1C(c2ccccc2)=NOC12CCCC2` [RG-120014], the “Fold Induction Average, Z3 assay” value (Bombyx mori EcR (VBE)) was 1.1.
With `CC1(C)ON=C(c2ccc3c(c2)OCO3)N1NC(=O)Nc1ccccc1` [RG-120017] the “Fold Induction Average, Z3 assay” value (Bombyx mori EcR (VBE)) was 0.9 and the “Fold Induction Average, 13B3 assay” value [2] was 0.8.
`COc1ccccc1C1=NOC(C)(C)N1NC(=O)COCc1ccccc1` [RG-120018] was tested, and the “Fold Induction Average, Z3 assay” value (Bombyx mori EcR (VBE)) was 0.7 and the “Fold Induction Average, 13B3 assay” value [2] was 0.8.
For `Cc1cc(C)cc(C2=NOC3(CCOCC3)N2NC(=O)c2ccccc2)c1` [RG-120019], the EC50 [1] was > 33 µM, the fold induction at 33.3 µM [1] was 1.5 and the “Rel Max FI, 27-63 assay” value [1] was 0.
`CCc1c(OC)cccc1C(=O)NN1C(c2ccc(-c3ccccc3)cc2)=NOC1(C)C` [RG-120020] was tested, and the “Fold Induction Average, Z3 assay” value (Bombyx mori EcR (VBE)) was 0.2 and the “Fold Induction Average, 13B3 assay” value [2] was 1.3.
In the case of `CCc1c(OC)cccc1C(=O)NN1C(c2ccc(OC(F)(F)F)cc2)=NOC1(C)C` [RG-120022], the fold induction at 33 µM (Bombyx mori EcR (VBE)) is reported as 0.1, the EC50 [1] is reported as > 33 µM and the fold induction at 33.3 µM [1] is reported as 0.3. For the same compound, the “Rel Max FI, 27-63 assay” value [1] was 0.
`CCc1c(OC)cccc1C(=O)NN1C(c2ccc3c(c2)OCO3)=NOC1(C)C` [RG-120023] was tested, and the fold induction at 33 µM (Bombyx mori EcR (VBE)) was 0.2, the EC50 [1] was > 33 µM and the fold induction at 33.3 µM [1] was 1.4. The “Rel Max FI, 27-63 assay” value [1] was 0.
`COc1ccccc1C1=NOC(C)(C)N1NC(=O)Nc1ccccc1` [RG-120025] was tested, and the “Fold Induction Average, Z3 assay” value (Bombyx mori EcR (VBE)) was 0.8 and the “Fold Induction Average, 13B3 assay” value [2] was 0.9.
For `CC1(C)ON=C(c2ccc(OC(F)(F)F)cc2)N1NC(=O)COc1ccccc1` [RG-120029], the “Fold Induction Average, Z3 assay” value (Bombyx mori EcR (VBE)) was 0.7 and the “Fold Induction Average, 13B3 assay” value [2] was 1.5.
With `CC1(C)ON=C(c2ccc(OC(F)(F)F)cc2)N1NC(=O)c1ccccc1` [RG-120033] the “Fold Induction Average, Z3 assay” value (Bombyx mori EcR (VBE)) was 0.7 and the “Fold Induction Average, 13B3 assay” value [2] was 0.9.
For `CCOC(=O)CCC(=O)NN1C(c2ccc(OC)cc2OC)=NOC1(C)C` [RG-120038], the “Fold Induction Average, Z3 assay” value (Bombyx mori EcR (VBE)) was 0.2.
For `Cc1cc(C)cc(C2=NOC3(CCCC3)N2NC(=O)Cc2ccccc2)c1` [RG-120046], the “Fold Induction Average, Z3 assay” value (Bombyx mori EcR (VBE)) was 8.9 and the “Fold Induction Average, 13B3 assay” value [2] was 1.3.
For `COc1ccccc1C1=NOC(C)(C)N1NC(=O)c1cc2ccccc2s1` [RG-120047], the “Fold Induction Average, Z3 assay” value (Bombyx mori EcR (VBE)) was 31.9 and the “Fold Induction Average, 13B3 assay” value [2] was 973.9.
With `Cc1cc(C)cc(C2=NOC3(CCOCC3)N2NC(=O)COc2ccccc2)c1` [RG-120048] the “Fold Induction Average, Z3 assay” value (Bombyx mori EcR (VBE)) was 1.0.
For `CCC1(C)ON=C(c2cc(C)cc(C)c2)N1NC(=O)COCc1ccccc1` (stereo not drawn) [RG-120050], the “Fold Induction Average, Z3 assay” value (Bombyx mori EcR (VBE)) was 3.5 and the “Fold Induction Average, 13B3 assay” value [2] was 0.9.
With `CC1(C)ON=C(c2cccc(C(F)(F)F)c2)N1NC(=O)C(F)(F)C(F)(F)Cl` [RG-120059] the “Fold Induction Average, Z3 assay” value (Bombyx mori EcR (VBE)) was 0.6.
In the case of `COc1ccc(C2=NOC(C)(C)N2NC(=O)Cc2ccccc2)c(OC)c1` [RG-120078], the “Fold Induction Average, Z3 assay” value (Bombyx mori EcR (VBE)) is reported as 0.4.
With `CCc1c(OC)cccc1C(=O)NN1C(c2cccc(C(F)(F)F)c2)=NOC1(C)C` [RG-120093] the fold induction at 33 µM (Bombyx mori EcR (VBE)) was 0.2, the EC50 [1] was > 33 µM and the fold induction at 33.3 µM [1] was 5. For the same compound, the “Rel Max FI, 27-63 assay” value [1] was 0.
In the case of `CC1(C)ON=C(c2cccc(C(F)(F)F)c2)N1NC(=O)c1cc2ccccc2s1` [RG-120108], the “Fold Induction Average, Z3 assay” value (Bombyx mori EcR (VBE)) is reported as 0.3.
`CC1(C)ON=C(c2ccc(OC(F)(F)F)cc2)N1NC(=O)c1cc2ccccc2s1` [RG-120109] was tested, and the “Fold Induction Average, Z3 assay” value (Bombyx mori EcR (VBE)) was 0.2.
In the case of `CCc1ccc(C(=O)NN2C(c3cccc(C(F)(F)F)c3)=NOC2(C)C)cc1` [RG-120148], the fold induction at 33 µM (Bombyx mori EcR (VBE)) is reported as 1.1, the EC50 [1] is reported as > 33 µM and the fold induction at 33.3 µM [1] is reported as 0.7. The “Rel Max FI, 27-63 assay” value [1] was 0.
For `COc1ccccc1C1=NOC(C)(C)N1NC(=O)Cc1ccccc1` [RG-120157], the “Fold Induction Average, Z3 assay” value (Bombyx mori EcR (VBE)) was 0.9.
For `CCc1ccc(C(=O)NN2C(c3cc(C)cc(C)c3)=NOC2(C)CC)c(F)c1` (stereo not drawn) [RG-121513], the EC50 [1] was ~10 µM, the fold induction at 33.3 µM [1] was 1020 and the “Rel Max FI, 27-63 assay” value [1] was 0.44.
With `CCc1ccc(C(=O)NN2C(c3ccccc3)=NOC23CCCC3)c(F)c1` [RG-121514] the EC50 [1] was 3.89 µM, the fold induction at 33.3 µM [1] was 1.7 and the “Rel Max FI, 27-63 assay” value [1] was 0.5.
`CCc1ccc(C(=O)NN2C(c3cc(C)cc(C)c3)=NOC23CCCC3)c(F)c1` [RG-121515] was tested, and the EC50 [1] was ~5 µM, the fold induction at 33.3 µM [1] was 36.6 and the “Rel Max FI, 27-63 assay” value [1] was 0.17.
With `CCc1ccc(C(=O)NN2C(c3ccccc3)=NOC2(C)C)c(F)c1` [RG-121516] the EC50 [1] was > 33 µM, the fold induction at 33.3 µM [1] was 7.9 and the “Rel Max FI, 27-63 assay” value [1] was 0.
`CCc1c(C(=O)NN2C(c3ccccc3)=NOC2(C)C)ccc2c1OCCO2` [RG-121517, 5-ethyl-2,3-dihydro-benzo[1,4]dioxine-6-carboxylic acid (5,5-dimethyl-3-phenyl-[1,2,4]oxadiazol-4-yl)-amide] was tested, and the EC50 [1] was ~20 µM, the fold induction at 33.3 µM [1] was 3510 and the “Rel Max FI, 27-63 assay” value [1] was 1.55.
For `CCc1c(C(=O)NN2C(c3cc(C)cc(C)c3)=NOC2(C)CC)ccc2c1OCCO2` (stereo not drawn) [RG-121518], the EC50 [1] was 3.57 µM, the fold induction at 33.3 µM [1] was 2340 and the “Rel Max FI, 27-63 assay” value [1] was 1.08.
